In patent US10004701B2, “Methods and compositions for treating infection” (UNIVERSITY OF ROCHESTER, priority 2012, dated 2018):
Structures can show the parent of a compound that is named as a salt. Where two headings read alike, the source gives them in different places.

What was measured:
Assay in all cases: AK assay 384-well format, Prestwick library screening
[1] = tested on: S. aureus strain USA300-0114; type: cell-based, Staphylococcus aureus; settings: 50 μM final drug concentration; for fold induction at 50 µM: Staphylococcus aureus, USA300, 3 h; for AK-based Prestwick Library Screening Results, S. aureus (fold increase in extracellular AK activity): cutoff for positive 3-fold increase
E. faecium = type: cell-based, Enterococcus faecium; settings: 50 μM final drug concentration; for fold induction at 50 µM: Enterococcus faecium, 3 h; for AK-based Prestwick Library Screening Results, E. faecium (fold increase in extracellular AK activity): cutoff for positive 3-fold increase
E. cloacae = type: cell-based, Enterobacter cloacae; settings: 50 μM final drug concentration; for fold induction at 50 µM: Enterobacter cloacae, 3 h; for AK-based Prestwick Library Screening Results, E. cloacae (fold increase in extracellular AK activity): cutoff for positive 3-fold increase
[2] = tested on: A. baumannii strain 98-37-09; type: cell-based, Acinetobacter baumannii; settings: 50 μM final drug concentration; for fold induction at 50 µM: Acinetobacter baumannii, 983709, 3 h; for AK-based Prestwick Library Screening Results, A. baumannii (fold increase in extracellular AK activity): cutoff for positive 3-fold increase
K. pneumoniae = type: cell-based, Klebsiella pneumoniae; settings: 50 μM final drug concentration; for fold induction at 50 µM: Klebsiella pneumoniae, 3 h; for AK-based Prestwick Library Screening Results, K. pneumoniae (fold increase in extracellular AK activity): cutoff for positive 3-fold increase
E. coli = type: cell-based, Escherichia coli; settings: 50 μM final drug concentration; for fold induction at 50 µM: Escherichia coli, 3 h; for AK-based Prestwick Library Screening Results, E. coli (fold increase in extracellular AK activity): cutoff for positive 3-fold increase
P. aeruginosa = type: cell-based, Pseudomonas aeruginosa; settings: 50 μM final drug concentration; for fold induction at 50 µM: Pseudomonas aeruginosa, 3 h; for AK-based Prestwick Library Screening Results, P. aeruginosa (fold increase in extracellular AK activity): cutoff for positive 3-fold increase
[3] = cutoff for positive-scoring molecules 3-fold increase, read-out: AK-based Prestwick Library Screening Results, S. aureus (fold increase in extracellular AK activity)
[4] = cutoff for positive-scoring molecules 3-fold increase, read-out: AK-based Prestwick Library Screening Results, E. faecium (fold increase in extracellular AK activity)
[5] = cutoff for positive-scoring molecules 3-fold increase, read-out: AK-based Prestwick Library Screening Results, E. cloacae (fold increase in extracellular AK activity)
[6] = cutoff for positive-scoring molecules 3-fold increase, read-out: AK-based Prestwick Library Screening Results, A. baumannii (fold increase in extracellular AK activity)
[7] = cutoff for positive-scoring molecules 3-fold increase, read-out: AK-based Prestwick Library Screening Results, K. pneumoniae (fold increase in extracellular AK activity)
[8] = cutoff for positive-scoring molecules 3-fold increase, read-out: AK-based Prestwick Library Screening Results, E. coli (fold increase in extracellular AK activity)
[9] = cutoff for positive-scoring molecules 3-fold increase, read-out: AK-based Prestwick Library Screening Results, P. aeruginosa (fold increase in extracellular AK activity)
[10] = 384-well format, cutoff for positive-scoring molecules 3-fold increase, read-out: AK-based Prestwick Library Screening Results, S. aureus (increase in extracellular AK activity)
[11] = 384-well format, cutoff for positive-scoring molecules 3-fold increase, read-out: AK-based Prestwick Library Screening Results, E. faecium (increase in extracellular AK activity)
[12] = 384-well format, cutoff for positive-scoring molecules 3-fold increase, read-out: AK-based Prestwick Library Screening Results, E. cloacae (increase in extracellular AK activity)
[13] = 384-well format, cutoff for positive-scoring molecules 3-fold increase, read-out: AK-based Prestwick Library Screening Results, A. baumannii (increase in extracellular AK activity)
[14] = 384-well format, cutoff for positive-scoring molecules 3-fold increase, read-out: AK-based Prestwick Library Screening Results, K. pneumoniae (increase in extracellular AK activity)
[15] = 384-well format, cutoff for positive-scoring molecules 3-fold increase, read-out: AK-based Prestwick Library Screening Results, E. coli (increase in extracellular AK activity)
[16] = 384-well format, cutoff for positive-scoring molecules 3-fold increase, read-out: AK-based Prestwick Library Screening Results, P. aeruginosa (increase in extracellular AK activity)

In the case of `CCOC(=O)[C@H](CCc1ccccc1)N[C@@H](C)C(=O)N1Cc2ccccc2C[C@H]1C(=O)O` [Quinapril HCl], the fold induction at 50 µM [1, 3] was 1.2, the fold induction at 50 µM (E. faecium; [4]) was 1.1 and the fold induction at 50 µM (E. cloacae; [5]) was 1.6. For the same compound, the fold induction at 50 µM [2, 6] was 1.2, the fold induction at 50 µM (K. pneumoniae; [7]) was 1 and the fold induction at 50 µM (E. coli; [8]) was 1.2. For the same compound, the fold induction at 50 µM (P. aeruginosa; [9]) was 1.2.

`CCC(=O)O[C@]1(C(=O)CCl)[C@@H](C)C[C@H]2[C@@H]3CCC4=CC(=O)C=C[C@]4(C)[C@@]3(F)[C@@H](O)C[C@@]21C` [Clobetasol propionate] gave a fold induction at 50 µM [1, 3] of 0.9, a fold induction at 50 µM (E. faecium; [4]) of 1 and a fold induction at 50 µM (E. cloacae; [5]) of 1.3. For the same compound, the fold induction at 50 µM [2, 6] was 1.3, the fold induction at 50 µM (K. pneumoniae; [7]) was 1 and the fold induction at 50 µM (E. coli; [8]) was 1.2. The fold induction at 50 µM (P. aeruginosa; [9]) was 1.1.

Work on `NCc1ccc(S(N)(=O)=O)cc1` [Mafenide hydrochloride] yielded a fold induction at 50 µM [1, 10] of 0.6, a fold induction at 50 µM (E. faecium; [11]) of 1.2 and a fold induction at 50 µM (E. cloacae; [12]) of 0.6. It also gave a fold induction at 50 µM [2, 13] of 0.5, a fold induction at 50 µM (K. pneumoniae; [14]) of 0.5 and a fold induction at 50 µM (E. coli; [15]) of 0.6. For the same compound, the fold induction at 50 µM (P. aeruginosa; [16]) was 0.5.

With Eburnamonine (−) the “AK-based Prestwick Library Screening Results, S. aureus (fold increase in extracellular AK activity)” value ([1]; planktonic) was 1.0, the “AK-based Prestwick Library Screening Results, E. faecium (fold increase in extracellular AK activity)” value (E. faecium; planktonic) was 1.1 and the “AK-based Prestwick Library Screening Results, E. cloacae (fold increase in extracellular AK activity)” value (E. cloacae; planktonic) was 1.4. The “AK-based Prestwick Library Screening Results, A. baumannii (fold increase in extracellular AK activity)” value ([2]; planktonic) was 1.1, the “AK-based Prestwick Library Screening Results, K. pneumoniae (fold increase in extracellular AK activity)” value (K. pneumoniae; planktonic) was 1.0 and the “AK-based Prestwick Library Screening Results, E. coli (fold increase in extracellular AK activity)” value (E. coli; planktonic) was 1.2. For the same compound, the “AK-based Prestwick Library Screening Results, P. aeruginosa (fold increase in extracellular AK activity)” value (P. aeruginosa; planktonic) was 1.3.

`c1cncc([C@@H]2CCCCN2)c1` [Anabasine] gave a fold induction at 50 µM ([1]; planktonic, […], read-out: AK-based Prestwick Library Screening Results, S. aureus (fold increase in extracellular AK activity)) of 0.6, a fold induction at 50 µM (E. faecium; planktonic, […], read-out: AK-based Prestwick Library Screening Results, E. faecium (fold increase in extracellular AK activity)) of 0.9 and a fold induction at 50 µM (E. cloacae; planktonic, […], read-out: AK-based Prestwick Library Screening Results, E. cloacae (fold increase in extracellular AK activity)) of 1. The fold induction at 50 µM ([2]; planktonic, […], read-out: AK-based Prestwick Library Screening Results, A. baumannii (fold increase in extracellular AK activity)) was 0.8, the fold induction at 50 µM (K. pneumoniae; planktonic, […], read-out: AK-based Prestwick Library Screening Results, K. pneumoniae (fold increase in extracellular AK activity)) was 0.8 and the fold induction at 50 µM (E. coli; planktonic, […], read-out: AK-based Prestwick Library Screening Results, E. coli (fold increase in extracellular AK activity)) was 1. For the same compound, the fold induction at 50 µM (P. aeruginosa; planktonic, […], read-out: AK-based Prestwick Library Screening Results, P. aeruginosa (fold increase in extracellular AK activity)) was 0.9.

`COc1ccc2c(c1)c(CC(=O)O)c(C)n2C(=O)c1ccc(Cl)cc1` [Indomethacin] showed a fold induction at 50 µM [1, 10] of 0.6, a fold induction at 50 µM (E. faecium; [11]) of 0.9 and a fold induction at 50 µM (E. cloacae; [12]) of 1.2. The fold induction at 50 µM [2, 13] was 1, the fold induction at 50 µM (K. pneumoniae; [14]) was 0.8 and the fold induction at 50 µM (E. coli; [15]) was 0.9. For the same compound, the fold induction at 50 µM (P. aeruginosa; [16]) was 0.9.

With `COc1ccc(CC2c3cc(OC)c(OC)cc3CC[N+]2(C)CCC(=O)OCCCCCOC(=O)CC[N+]2(C)CCc3cc(OC)c(OC)cc3C2Cc2ccc(OC)c(OC)c2)cc1OC` (stereo not drawn) [Atracurium besylate] the fold induction at 50 µM [1, 10] was 0.5, the fold induction at 50 µM (E. faecium; [11]) was 0.8 and the fold induction at 50 µM (E. cloacae; [12]) was 0.3. The fold induction at 50 µM [2, 13] was 0.4, the fold induction at 50 µM (K. pneumoniae; [14]) was 0.5 and the fold induction at 50 µM (E. coli; [15]) was 0.5. The fold induction at 50 µM (P. aeruginosa; [16]) was 0.4.

For Terbutaline hemisulfate, the “AK-based Prestwick Library Screening Results, S. aureus (fold increase in extracellular AK activity)” value ([1]; planktonic) was 1.1, the “AK-based Prestwick Library Screening Results, E. faecium (fold increase in extracellular AK activity)” value (E. faecium; planktonic) was 1.0 and the “AK-based Prestwick Library Screening Results, E. cloacae (fold increase in extracellular AK activity)” value (E. cloacae; planktonic) was 1.4. For the same compound, the “AK-based Prestwick Library Screening Results, A. baumannii (fold increase in extracellular AK activity)” value ([2]; planktonic) was 1.1, the “AK-based Prestwick Library Screening Results, K. pneumoniae (fold increase in extracellular AK activity)” value (K. pneumoniae; planktonic) was 1.3 and the “AK-based Prestwick Library Screening Results, E. coli (fold increase in extracellular AK activity)” value (E. coli; planktonic) was 1.2. The “AK-based Prestwick Library Screening Results, P. aeruginosa (fold increase in extracellular AK activity)” value (P. aeruginosa; planktonic) was 1.1.

For `C(#CCN1CCCC1)CN1CCCC1.Cl.Cl` [Tremorine dihydrochloride], the “AK-based Prestwick Library Screening Results, S. aureus (increase in extracellular AK activity)” value ([1]; planktonic S. aureus, […]) was 0.5, the “AK-based Prestwick Library Screening Results, E. faecium (increase in extracellular AK activity)” value (E. faecium; planktonic E. faecium, […]) was 1.0 and the “AK-based Prestwick Library Screening Results, E. cloacae (increase in extracellular AK activity)” value (E. cloacae; planktonic E. cloacae, […]) was 0.7. The “AK-based Prestwick Library Screening Results, A. baumannii (increase in extracellular AK activity)” value ([2]; planktonic A. baumannii, […]) was 0.7, the “AK-based Prestwick Library Screening Results, K. pneumoniae (increase in extracellular AK activity)” value (K. pneumoniae; planktonic K. pneumoniae, […]) was 0.6 and the “AK-based Prestwick Library Screening Results, E. coli (increase in extracellular AK activity)” value (E. coli; planktonic E. coli, […]) was 0.7. The “AK-based Prestwick Library Screening Results, P. aeruginosa (increase in extracellular AK activity)” value (P. aeruginosa; planktonic P. aeruginosa, […]) was 0.6.
